The target in one test is PfENR (Plasmodium falciparum, UniProt Q9BH77). Put plainly: Inhibition of PfENR (P. falciparum enoyl-ACP reductase, PfFabI), spectrophotometric NADH/crotonoyl-CoA assay. The test is classed as biochemical. On the procedure: PfENR activity was determined in the presence of various concentrations of the inhibitor (25 nM to 750 nM). The percent inhibition was calculated from the residual PfENR activity and was plotted against log compound NAV-117 used. The sigmoidal curve indicates the best fit for the data and IC50 value was calculated from the graph.
PfENR, sequence (Q9BH77 entry or part of it): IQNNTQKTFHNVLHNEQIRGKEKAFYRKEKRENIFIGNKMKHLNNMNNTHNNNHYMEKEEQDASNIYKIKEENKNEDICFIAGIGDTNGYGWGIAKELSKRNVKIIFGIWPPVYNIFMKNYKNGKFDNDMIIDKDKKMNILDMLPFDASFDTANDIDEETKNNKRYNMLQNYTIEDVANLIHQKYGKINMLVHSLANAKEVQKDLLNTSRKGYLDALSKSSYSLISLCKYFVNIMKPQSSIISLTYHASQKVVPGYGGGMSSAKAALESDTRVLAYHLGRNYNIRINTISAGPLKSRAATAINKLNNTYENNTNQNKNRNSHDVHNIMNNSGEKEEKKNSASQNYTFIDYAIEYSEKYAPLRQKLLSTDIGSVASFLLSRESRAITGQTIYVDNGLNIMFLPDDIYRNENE
PfENR was assayed at two fixed concentrations -100 μM [·] and 200 μM [<] of crotonoyl CoA in presence of 250 nM of compound NAV-117 and 100 μM of NADH. Ki was calculated from the X-intercept. Plot indicates competitive kinetics with respect to crotonoyl CoA.
200 nM PfENR was assayed in presence of 200 μM crotnoyl CoA, 250 nM compound NAV-117 and 50 μM [·] and 100 μM [<] of NADH. Ki of inhibitor was calculated from the. X-intercept. Plot indicates noncompetitive kinetics with respect to NADH.
Spectrophotometric assay of enzyme activity The activity of the Enoyl-ACP reductase was assayed by following rate of the disappearance of NADH using crotonyl-CoA as a substrate. The assay mixture (100 μl) comprised of 100 μM crotonyl-CoA 100 μM NADH and 1% ethanol in […] buffer, pH 7.5. The kinetic parameters were obtained form the double reciprocal plots.
Enzyme inhibition studies The inhibition studies were carried out by preincubating enoyl ACP reductase with the respective compound and various concentrations of the coenzymes at 4° C. for 5 hours. This was warmed to 25° C. and assay was started by the addition of the crotonyl-CoA. The inhibition constant Ki was determined by using the following equation: v=v0/(1+[I]/Ki)
Kinetics of inhibition of PfENR. We deduced the kinetics of inhibition for NAV-117 with respect to crotonoyl CoA as well as NADH. The reaction velocity was measured at a fixed concentration of substrate varying the inhibitor concentration. A graph of the reciprocal of velocity against inhibitor concentration was plotted. […] The IC50 value was calculated by ploting the residual PfENR activity against log of inhibitor concentration and fitting the data points into a sigmoidal curve (FIG. 3). […]

For test [1], the system named is Chloroquine-sensitive Plasmodium falciparum FCK2 strain. Briefly: In vitro whole-cell assay against Plasmodium falciparum in red blood cell cultures. The format is cell-based. The method, then: Compound NAV 117 was assayed for in vitro growth inhibition of Plasmodium falciparum by incubating the cultures with different concentrations of the inhibitors in Me2SO (final concentration, 0.05%). The cultures were checked for growth inhibition by microscopic examination by assessing the parasitemia at every 48 h (●) and 96 h (∘). The average of three data sets has been plotted, and the error bars are shown.
In vitro whole-cell assay against Plasmodium falciparum. Antimalarial activity of NAV-117 was checked towards the Chloroquine-sensitive Plasmodium falciparum FCK2 strain in red blood cell cultures.

In brackets after ≈: the same amount, converted by molar mass.

On to `O=C1/C(=C/c2ccc(O)c(O)c2)SC(=S)N1c1ccccc1` [NAV-117, 5-(3,4-Dihydroxy-benzylidene)-3-phenyl-2-thioxo-thiazolidin-4-one], for which the “inhibition kinetics with respect to crotonoyl CoA (Dixon plot)” value at PfENR (100 μM and 200 μM crotonoyl CoA, 100 μM NADH (FIG. 4)) is reported as “competitive”. Also, the “inhibition kinetics with respect to NADH (Dixon plot)” value at PfENR (200 μM crotonoyl CoA, 50 μM and 100 μM NADH (FIG. 5)) is “noncompetitive”. The IC50 was 242 nM on PfENR (inhibitor 25 nM to 750 nM, sigmoidal fit (FIG. 3), read-out: IC50 value (residual PfENR activity against log of inhibitor concentration) (converted)) and roughly 750 nM in test [1] (Erythrocyte, after 96 h, non-linear regression (FIG. 6), read-out: IC50 value for growth inhibition of the parasite). Besides, the MIC in test [1] (read-out: MIC (minimum inhibitory concentration)) was found to be 2.5 µM (≈ 0.824 µg/mL).

For the origin of these results see US20080051445A1, “2-Thioxothiazolidin-4-one compounds and compositions as antimicrobial and antimalarial agents targeting enoyl-ACP reductase of type II fatty acid synthesis pathway and other cell growth pathways” (NATIONAL INSTITUTE OF IMMUNOLOGY., priority 2006, published 2008).
